Measurements from patent EP4702986A1, “POLYPEPTIDE AND USE THEREOF” (Biocells (Beijing) Biotech Co., Ltd., priority 2023, dated 2024).
“Also recorded” adds a separate entry of the source. Where two headings read alike, the source gives them in different places. Numbered stars: 1 amine (or outer) side, 2 acyl side, 3 side chain; on linkers, the order of the positions; unused ones are H or OH. Bridge positions count the residues as written; N and C are the ends. Side chains are listed from the residue outwards. Peptide text beside a SMILES is read from it. * marks the point of attachment. C18 diacid = O=C(O)CCCCCCCCCCCCCCCCC(=O)*; γGlu = O=C(O)[C@H](CCC(=O)[*:2])N[*:1]; Ethylenediamine = C(CN[*:2])N[*:1]; Palmitoyl = CCCCCCCCCCCCCCCC(=O)*; Fumaroyl = O=C(O)/C=C/C(=O)*; Suc = O=C(CCC(=O)[*:2])[*:1]; Lauroyl = CCCCCCCCCCCC(=O)*; AEEA = NCCOCCOCC(=O)O

How the values were obtained:
male SD rats [1] = conditions: one animal per row, observed 48 hours
Protocol: In an experiment about acute toxicity of subcutaneous administration, male SD rats weighing 200-230 g were dosed in a range between 60 µg/Kg and 960 µg/Kg. Observation was made for 48 hours after subcutaneous administration. Toxic response and mortality of the rats were preliminarily observed, and time of death and doses without mortality were recorded. The level of acute toxicity of the polypeptides was preliminarily determined based on the doses without mortality.

human ETA receptor = target: T1, human ETA receptor (Homo sapiens, UniProt P25101); assay: Selectivity of polypeptides on human ETA receptor (IP-One Gq kit, % of positive control ET1); type: cell-based; conditions: read-out: hETAR agonist activity, percentage of activity relative to ET1
T1 construct: expressed in transfected cells; host or cells: 293T-17 cells, transient transfection
T1 sequence (P25101 21-427): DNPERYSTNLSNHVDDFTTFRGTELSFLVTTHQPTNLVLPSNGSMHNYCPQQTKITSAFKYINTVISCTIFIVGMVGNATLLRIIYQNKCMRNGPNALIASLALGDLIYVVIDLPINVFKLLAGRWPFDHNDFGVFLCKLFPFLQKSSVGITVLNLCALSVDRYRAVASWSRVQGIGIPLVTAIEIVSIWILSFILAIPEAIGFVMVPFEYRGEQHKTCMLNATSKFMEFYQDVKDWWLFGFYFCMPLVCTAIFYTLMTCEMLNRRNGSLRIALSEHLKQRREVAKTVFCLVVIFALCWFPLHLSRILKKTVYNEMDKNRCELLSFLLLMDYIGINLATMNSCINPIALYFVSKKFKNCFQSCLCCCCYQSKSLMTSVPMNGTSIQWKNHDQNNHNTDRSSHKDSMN
Protocol: 293T-17 cells were seeded at a density of 650,000 cells per well in a 6-well plate and cultured overnight in an incubator at 37°C and 5% CO2. Afterward, the cells were transfected with an expression vector, PCDNA3.1-hETA which contained a human ETA receptor gene, at a plasmid concentration of 2.5 µg per well. The cells were further cultured for 48 hours, and green fluorescence expression was observed under a fluorescence microscope. The cells were then digested with trypsin and counted. The activity of compounds on the human ETA receptor was determined with the IP-One Gq kit from Cisbio Bioassays. The cells were suspended in Stim Buffer provided in the kit and the cell suspension was added to a 96-well detection plate at 7 µL cell suspension (containing 30,000 cells) per well. The polypeptides to be screened for activity (prepared according to the Preparation Example of the invention) and polypeptide human endothelin ET1 as positive control were dissolved in Stim B to be at a concentration of 2×, and 7 µL was added to the test cells, while 7 µL of PBS solution was added to the cells in the negative control wells. Human endothelin ET1 (ET1: […] (C1-C15,C3-C11)) set forth in SEQ ID No. 85 was used as the positive control polypeptide. The plate was sealed and incubated at 37°C for 1 h in a cell culture incubator. Detection wells, positive control wells, and PBS control wells were each added with 3 µL of IP1 d2 working solution and 3 µL of IP1 Tb cryptotate Antibody working solution. The plate was sealed and incubated in the dark at room temperature (25°C±5°C) for 1 h. The plate seal was removed, and the […] at 665 nm and 620 nm was measured with an ID5 microplate reader. The ratio of the acceptor emission signal to the donor emission signal, i.e., the value of (signal at 665 nm/signal at 620 nm)×10^4, was calculated for each well. With F3 representing the average value of values of signal at 665 nm/signal at 620 nm determined for the test sample at a specific concentration, F5 representing the average value of values of signal at 665 nm/signal at 620 nm determined for the positive control human endothelin ET1 at the same concentration, and T3 representing the average value of values of signal at 665 nm/signal at 620 nm determined for the PBS negative control, the percentage of activity of the test polypeptide sample relative to the positive control sample ET1 = (F3-T3)×100/(F5-T3) (see Table 6). hETA sequence (NCBI accession number L06622.1).

[2] = Determination of half-lives of polypeptides (plasma, LC-MS); conditions: for half-life: C57 BL/6, mouse, plasma, iv; for AUClast 0-30 min: C57 BL/6 mice, dosage per compound 0.48, 0.96 or 1 mpk; for AUClast 0-30 min / T1/2: i.v.; for T1/2: Table 1, mice
male SD rats [3] = assay: in vivo; conditions: intravenous (tail vein) 240 µg/Kg; one animal per row; observed 24 hours
Protocol: In an experiment about acute toxicity of intravenous administration, male SD rats weighing 200-230 g were dosed in a range between 480 µg/Kg and 30 µg/Kg via tail vein injection in a descending order of dosage. […] Toxic response and mortality of the rats were preliminarily observed, and time of death and doses without mortality of the rats were recorded. The level of acute toxicity of the polypeptides was preliminarily determined based on the doses without mortality.

SMILES | Observations of Animal Status (male SD rats [1]; subcutaneous 240 µg/Kg) | Observations of Animal Status (male SD rats [1]; subcutaneous 360 µg/Kg) | Observations of Animal Status (male SD rats [1]; subcutaneous 480 µg/Kg) | activation at 10 µM (human ETA receptor) [%] | activation at 100 µM (human ETA receptor) [%] | half-life [2] [min] | AUClast 0-30 min [2] [ng·h/mL] | T1/2 [2] | Observations of Animal Status (male SD rats [3])
CCCCCCCCCCCC(=O)N[C@@H](CCC(=O)O)C(=O)NCCOCCOCC(=O)NCCCC[C@H](NC(=O)[C@H](Cc1c[nH]cn1)NC(=O)[C@H](C)NC(=O)[C@H](Cc1ccccc1)NC(=O)[C@H](Cc1ccc(O)cc1)NC(=O)[C@@H](NC(=O)[C@H](C)NC(=O)[C@H](CCC(=O)O)NC(=O)[C@H](CCC(=O)O)NC(=O)[C@H](CC(=O)O)NC(=O)/C=C/C(=O)O)C(C)C)C(=O)N[C@@H](CC(=O)O)C(=O)N[C@H](C(=O)N[C@H](C(=O)N[C@@H](Cc1c[nH]c2ccccc12)C(=O)O)[C@@H](C)CC)C(C)C [BX238-Na] (Fumaroyl-DEEAVYFAHK([AEEA-Glu-Lauroyl])DVIW-OH) | No obvious abnormal reaction observed within 48 hours | No obvious abnormal reaction observed within 48 hours | Developed rapid breathing at 50 minutes after administration, showed no willingness to move, recovered 2 hours after administration; also recorded: Developed rapid breathing at 21 minutes after administration, died at 26 minutes after administration; also recorded: Developed rapid breathing at 10 minutes after administration, died at 47 minutes after administration; also recorded: Developed rapid breathing at 45 minutes after administration, showed no willingness to move, recovered 2 hours after administration; also recorded: Developed rapid breathing at 20 minutes after administration, died at 55 minutes after administration | – | – | – | – | – | –
CCCCCCCCCCCCCCCC(=O)NCCOCCOCC(=O)NCCOCCOCC(=O)N[C@@H](CCC(=O)NCCCC[C@H](NC(=O)[C@H](Cc1c[nH]cn1)NC(=O)[C@H](C)NC(=O)[C@H](Cc1ccccc1)NC(=O)[C@H](Cc1ccc(O)cc1)NC(=O)[C@@H](NC(=O)[C@H](C)NC(=O)[C@H](CCC(=O)O)NC(=O)[C@H](CCC(=O)O)NC(=O)[C@H](CC(=O)O)NC(=O)/C=C/C(=O)O)C(C)C)C(=O)N[C@@H](CC(=O)O)C(=O)N[C@H](C(=O)N[C@H](C(=O)N[C@@H](Cc1c[nH]c2ccccc12)C(=O)O)[C@@H](C)CC)[C@@H](C)CC)C(=O)O [BX-70] (Fumaroyl-DEEAVYFAHK([γGlu-AEEA-AEEA-Palmitoyl])DIIW-OH) | – | – | – | -15.8 | 13.5 | 41 | 1701 | T1/2=41min; | –
CCCCCCCCCCCC(=O)NCCOCCOCC(=O)NCCOCCOCC(=O)N[C@@H](CCC(=O)NCCCC[C@H](NC(=O)[C@H](Cc1c[nH]cn1)NC(=O)[C@H](C)NC(=O)[C@H](Cc1ccccc1)NC(=O)[C@H](Cc1ccc(O)cc1)NC(=O)[C@@H](NC(=O)[C@H](C)NC(=O)[C@H](CCC(=O)O)NC(=O)[C@H](CCC(=O)O)NC(=O)[C@H](CC(=O)O)NC(=O)/C=C/C(=O)O)C(C)C)C(=O)N[C@@H](CC(=O)O)C(=O)N[C@H](C(=O)N[C@H](C(=O)N[C@@H](Cc1c[nH]c2ccccc12)C(=O)O)[C@@H](C)CC)[C@@H](C)CC)C(=O)O [BX-71] (Fumaroyl-DEEAVYFAHK([γGlu-AEEA-AEEA-Lauroyl])DIIW-OH) | – | – | – | -9.66 | -9.49 | 23 | 2049 | T1/2=23min; | –
CC[C@H](C)[C@H](NC(=O)[C@@H](NC(=O)[C@H](CC(=O)O)NC(=O)[C@H](CC(C)C)NC(=O)[C@H](Cc1c[nH]cn1)NC(=O)[C@H](C)NC(=O)[C@H](Cc1ccccc1)NC(=O)[C@H](Cc1ccc(O)cc1)NC(=O)[C@@H]1CCCCNC(=O)CC[C@H](NC(=O)[C@H](CC(=O)O)NC(=O)CCC(=O)O)C(=O)N[C@@H](CCC(=O)O)C(=O)N[C@@H](C)C(=O)N1)C(C)C)C(=O)N[C@@H](Cc1c[nH]c2ccccc12)C(=O)O [BX-76] (Suc-DEEAKYFAHLDVIW-OH; lactam 2-5) | – | – | – | -20.9 | -7.56 | 3.6 | 250 | – | –
CC[C@H](C)[C@H](NC(=O)[C@H](CC(=O)O)NC(=O)[C@H](CCCCNC(=O)CC[C@H](NC(=O)COCCOCCNC(=O)COCCOCCNC(=O)CCCCCCCCCCCCCCCCC(=O)O)C(=O)O)NC(=O)[C@H](Cc1c[nH]cn1)NC(=O)[C@H](C)NC(=O)[C@H](Cc1ccccc1)NC(=O)[C@H](Cc1ccc(O)cc1)NC(=O)[C@@H](NC(=O)[C@H](C)NC(=O)[C@H](CCC(=O)O)NC(=O)[C@H](CCC(=O)O)NC(=O)[C@H](CC(=O)O)NC(=O)/C=C/C(=O)O)C(C)C)C(=O)N[C@H](C(=O)N[C@@H](Cc1c[nH]c2ccccc12)C(N)=O)[C@@H](C)CC [BX-86] (Fumaroyl-DEEAVYFAHK([γGlu-AEEA-AEEA-C18 diacid])DIIW-NH2) | – | – | – | 18.3 | 10.4 | 63 | 1146 | – | –
CC[C@H](C)[C@H](NC(=O)[C@H](CC(=O)O)NC(=O)[C@H](CC(C)C)NC(=O)[C@H](Cc1c[nH]cn1)NC(=O)[C@H](C)NC(=O)[C@H](Cc1ccccc1)NC(=O)[C@H](Cc1ccc(O)cc1)NC(=O)[C@@H](NC(=O)[C@H](C)NC(=O)[C@H](CCC(=O)O)NC(=O)[C@H](CCC(=O)O)NC(=O)[C@H](CC(=O)O)NC(=O)CCC(=O)NCCNC(=O)COCCOCCNC(=O)COCCOCCNC(=O)CC[C@H](NC(=O)CCCCCCCCCCCCCCCCC(=O)O)C(=O)O)C(C)C)C(=O)N[C@H](C(=O)N[C@@H](Cc1c[nH]c2ccccc12)C(=O)O)[C@@H](C)CC [BX-256] ({C18 diacid-γGlu-AEEA-AEEA-Ethylenediamine-Suc}-DEEAVYFAHLDIIW-OH) | – | – | – | – | – | – | – | – | Developed rapid breathing and limbs turned pale purple, and developed convulsions at 16 minutes after administration; died at 27 minutes after administration; also recorded: Developed rapid breathing, the limbs and face turned purple, and had weak limbs at 15 minutes after administration; died at 21 minutes after administration
